These results are taken from ChEMBL document CHEMBL4393736, “Evaluation of α-hydroxycinnamic acids as pyruvate carboxylase inhibitors” (Bioorg Med Chem, 2019).

The nature of test [1]: Inhibition of Staphylococcus aureus pyruvate carboxylase expressed in Escherichia coli BL21(DE3) assessed as FVB-OAA adduct formation using pyruvate as substrate by Fast violet B assay.
The nature of test [2]: Inhibition of full length Staphylococcus aureus pyruvate carboxylase expressed in Escherichia coli BL21(DE3) assessed as formation of oxaloacetic acid using pyruvate, HCO3-, ATP and NADH as substrate by malate dehydrogenase coupled enzyme assay.
Test [3] concerns the target 72 kDa type IV collagenase (Homo sapiens) (UniProt P08253). The experiment in a line: Inhibition of human matrix metalloprotease 2 at 50 uM treated with enzyme for 30 mins prior to substrate addition using omniMMP fluorogenic substrate measured for 30 mins by fluorescence based assay.
Test [4] deals with Carbonic anhydrase 2 (Homo sapiens) (UniProt P00918). The experiment in a line: Increase in human carbonic anhydrase 2 activity at 200 uM treated with enzyme for 10 mins prior to substrate addition using p-nitrophenyl acetate as substrate measured for 20 mins.
The species named for test [5] is Homo sapiens. In words: Inhibition of MDH (unknown origin) at 1 mM using oxaloacetate as substrate by spectrophotometric analysis.
The species named for test [6] is Homo sapiens. The experiment in a line: Inhibition of MDH (unknown origin) at 200 uM using oxaloacetate as substrate by spectrophotometric analysis.
For test [7], the target named is Carbonic anhydrase 2 (Homo sapiens) (UniProt P00918). In words: Inhibition of human carbonic anhydrase 2 at 200 uM treated with enzyme for 10 mins prior to substrate addition using p-nitrophenyl acetate as substrate measured for 20 mins.
For test [8], the target named is L-lactate dehydrogenase (Homo sapiens) (UniProt V9HWB9). In words: Substrate activity at lactate dehydrogenase (unknown origin) at 2 mM in presence of NADH.
The nature of test [9]: (§1) Competitive inhibition of Staphylococcus aureus pyruvate carboxylase expressed in Escherichia coli BL21(DE3) treated with pyruvate as substrate prior to HCO3-, ATP and NADH addition by Michelis-Menten based double-reciprocal plot analysis.
A short description of test [10]: Mixed-type of inhibition of Staphylococcus aureus pyruvate carboxylase expressed in Escherichia coli BL21(DE3) treated with ATP as substrate prior to HCO3-, ATP and NADH addition by Michelis-Menten based double-reciprocal plot analysis.
Test [11] concerns the target L-lactate dehydrogenase (Homo sapiens) (UniProt V9HWB9). In words: Inhibition of lactate dehydrogenase (unknown origin) at 2 mM using pyruvate as substrate in presence of NADH.
Test [12] relates to Staphylococcus aureus. The description is as §1.
Test [13] has as its system Staphylococcus aureus. The experiment in a line: Non-competitive inhibition of Staphylococcus aureus pyruvate carboxylase expressed in Escherichia coli BL21(DE3) treated with ATP as substrate prior to HCO3-, ATP and NADH addition by Michelis-Menten based double-reciprocal plot analysis.

The source made the active and inactive calls. No cut-off for these calls is given here.

Sequence of 72 kDa type IV collagenase (Homo sapiens) (P08253 110-660 limits assumed): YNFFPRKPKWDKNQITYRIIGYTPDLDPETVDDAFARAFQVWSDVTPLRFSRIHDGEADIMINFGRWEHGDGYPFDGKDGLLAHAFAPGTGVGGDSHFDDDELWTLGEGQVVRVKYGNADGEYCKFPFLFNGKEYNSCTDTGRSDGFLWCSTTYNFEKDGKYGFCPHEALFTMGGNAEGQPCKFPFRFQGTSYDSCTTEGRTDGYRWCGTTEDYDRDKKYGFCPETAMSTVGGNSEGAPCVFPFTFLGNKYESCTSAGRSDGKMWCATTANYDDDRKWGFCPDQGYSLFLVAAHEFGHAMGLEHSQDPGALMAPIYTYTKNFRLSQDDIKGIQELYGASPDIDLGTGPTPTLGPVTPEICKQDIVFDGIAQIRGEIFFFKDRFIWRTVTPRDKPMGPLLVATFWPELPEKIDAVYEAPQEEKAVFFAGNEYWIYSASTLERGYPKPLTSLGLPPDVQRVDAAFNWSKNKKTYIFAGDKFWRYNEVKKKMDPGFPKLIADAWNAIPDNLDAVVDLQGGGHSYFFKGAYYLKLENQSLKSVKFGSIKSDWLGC

What is called IC50 is the concentration that gives 50% inhibition. On to `O=C(O)/C(O)=C/c1ccc([N+](=O)[O-])cc1`, for which the IC50 in test [1] and in [2] was greater than 1000 µM throughout.

Regarding `C=CCCC(=O)C(=O)O`, the IC50 in test [1] is greater than 2000 µM.

Broadly, the inhibition is the relative decrease from the control value, in per cent. Consider `O=C(O)/C=C/c1ccc(/C=C(\O)C(=O)O)cc1`, for which, in test [1], the IC50 was 58.6 µM. Further, the inhibition entry in test [3] is “Active”. Also, the result in test [4] was Active.

`O=C(O)/C=C/c1cccc(/C=C(\O)C(=O)O)c1`: the IC50 in test [1] was 118 µM.

With `Cc1cccc(/C=C(\O)C(=O)O)c1`, the IC50 in test [1] amounted to 360 µM; in test [2] it was 23 µM. In addition, the values for the inhibition in the test filed under Homo sapiens [5] and in the test listed under Homo sapiens [6] were 74% and 13%, respectively.

Take `O=C(O)/C(O)=C/c1ccc(Cl)cc1`: the IC50 was found to be 280 µM in [1] and 220 µM in test [2]. Besides, the inhibition in the test filed under Homo sapiens [5] turned out to be 12%; in the test filed under Homo sapiens [6] it was 2%.

As for `O=C(O)/C(O)=C/c1ccc(-c2ccsc2)cc1`, the IC50 in [1] was found to be 48 µM. Also, in test [3], the inhibition result was “Active”.

For the compound `O=C(O)/C(O)=C/c1ccccc1`, the IC50 is 240 µM in test [1] and 130 µM in [2]. In addition, the values for the inhibition in the test filed under Homo sapiens [5] and in the test listed under Homo sapiens [6] were 78% and 0%, respectively.

In the case of `O=C(O)C(=O)c1ccccc1` [BENZOYL FORMIC ACID], the IC50 in test [1] was greater than 3000 µM.

As for `O=C(O)C(O)Cc1ccccc1` (centres undefined), the IC50 in [1] is greater than 3000 µM.

Take `O=C(O)/C(O)=C/c1ccc(Br)cc1`: the IC50 in test [1] stood at 200 µM; in [2], 81 µM. Further, the inhibition came out at 9% in the test listed under Homo sapiens [5] and 0% in the test listed under Homo sapiens [6].

For the compound `O=C(O)/C(O)=C/c1ccc(C(F)(F)F)cc1`, the IC50 in test [1] is 130 µM; in test [2], 96 µM.

The Ki is the equilibrium dissociation constant of an inhibitor or competing ligand from its target. For `O=C(O)/C(O)=C/c1ccc2ccccc2n1`, the inhibition result in [7], in test [3] and in test [11] was “inactive” each time. The outcome in test [8] was inactive. For the same compound, the IC50 worked out at 4.3 µM in test [1] and 3.2 µM in test [2]. Besides, the Ki in [9] is 0.74 µM; in test [10] it was 5.2 to 7.1 µM. In the test listed under Homo sapiens [5], the inhibition turned out to be 4%.

Turning to `O=C(O)/C(O)=C/c1ccc(O)cc1`, the outcome in test [8] was Active. Also, the IC50 in [1] worked out at 67 µM; in test [2], 22 µM. The inhibition in the test filed under Homo sapiens [5] is 9%.

Regarding `O=C(O)C(=O)CCc1ccccc1`, the IC50 in test [1] was greater than 2000 µM.

As for `O=C(O)/C(O)=C/c1ccc(/C=C(\O)C(=O)O)cc1`, the results for the IC50 in test [1] and in test [2] were 3 µM and 11 µM, respectively. In addition, the inhibition result in test [3] was “Active”. The outcome in [4] was Active.

Turning to `O=C(O)C(=O)Cc1ccccc1[N+](=O)[O-]`, the IC50 in test [1] and in [2] was greater than 2000 µM in each case.

Take `Cc1ccc(/C=C(\O)C(=O)O)cc1C`: the IC50 is 98 µM in [1] and 38 µM in [2]. Further, in the test filed under Homo sapiens [6], the inhibition came to 3%.

As to `O=C(O)/C(O)=C/c1ccc(F)cc1`, the IC50 worked out at 100 µM in [1] and 30 µM in test [2]. The values for the inhibition in the test filed under Homo sapiens [5] and in the test filed under Homo sapiens [6] were 78% and 23%, respectively.

Turning to `COc1ccc(/C=C(\O)C(=O)O)cc1`, the IC50 in test [1] is 170 µM; in test [2], 56 µM.

In the case of `Cc1ccc(/C=C(\O)C(=O)O)cc1`, the half-inhibitory concentration (IC50) is 210 µM in test [1] and 140 µM in test [2]. Further, the inhibition entry in the test on Staphylococcus aureus [12] and in the test on Staphylococcus aureus [13] was “Active” each time. The inhibition was 10% in the test listed under Homo sapiens [5] and -3% in the test filed under Homo sapiens [6].

Regarding `O=C(O)C(=O)Cc1ccccc1Br`, the IC50 in [1] and in test [2] was greater than 1000 µM in each case.

With `O=C(O)C(=O)CC1CCCCC1`, in [1], the IC50 was greater than 1000 µM.

Take `O=C(O)C(=O)O`: the inhibition result with Staphylococcus aureus [12] and in the test with Staphylococcus aureus [13] was “Active” in each case.
